Patent US8193218B2, “Aroyl-piperidine derivatives and method of treating disorders induced by substance P” (Novartis AG, priority 2002, dated 2012)
pIC50: −log10 of the molar value.

Columns and labels:
[1] = target: T1, binding of H^3-substance P to bovine retina (Bos taurus, UniProt F1MIX5); test: binding of H^3-substance P to bovine retina, radio receptor assay; details: read-out: in vitro values (IC50), inhibition of binding of H^3-substance P to bovine retina
T1 construct: from tissue; host or cells: bovine retina
Protocol: In addition, the binding of H^3-substance P to bovine retina in the radio receptor assay according to H. Bittiger, Ciba Foundation Symposium 91, 196-199 (1982) is inhibited with IC50 values of from approximately 1 nmol. For example, the following in vitro values of about 10 nM were obtained for the target compounds of Examples 1 and 2.

T1 sequence (F1MIX5 1-407): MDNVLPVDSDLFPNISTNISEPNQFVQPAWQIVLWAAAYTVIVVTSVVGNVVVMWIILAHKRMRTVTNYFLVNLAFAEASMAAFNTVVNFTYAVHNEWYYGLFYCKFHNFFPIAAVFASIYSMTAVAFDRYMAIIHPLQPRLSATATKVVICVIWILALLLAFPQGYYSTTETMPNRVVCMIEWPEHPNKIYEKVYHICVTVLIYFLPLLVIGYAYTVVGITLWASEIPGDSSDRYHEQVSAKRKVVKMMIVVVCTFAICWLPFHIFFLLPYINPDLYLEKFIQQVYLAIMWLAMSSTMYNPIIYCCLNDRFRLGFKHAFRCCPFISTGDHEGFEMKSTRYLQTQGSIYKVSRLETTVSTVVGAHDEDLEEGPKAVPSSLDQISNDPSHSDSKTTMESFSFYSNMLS

| pIC50 [1] | melting point [°C] | Compound |
| --- | --- | --- |
| ~8.00 | 222 to 224 | O=C(N[C@H]1CCN(C(=O)c2cc(C(F)(F)F)cc(C(F)(F)F)c2)[C@H](Cc2ccc(Cl)cc2)C1)c1cc(O)nc2ccccc12 [Example 2, 2-Hydroxy-quinoline-4-carboxylic acid [(2R,4S)-1-(3,5-bis-trifluoromethyl-benzoyl)-2-(4-chloro-benzyl)-piperidin-4-yl]-amide] |
| ~8.00 | 223 to 225 | O=C(N[C@H]1CCN(C(=O)c2cc(C(F)(F)F)cc(C(F)(F)F)c2)[C@H](Cc2ccc(Cl)cc2)C1)c1cc[n+]([O-])c2ccccc12 [Example 1, 1-Oxy-quinoline-4-carboxylic acid [(2R,4S)-1-(3,5-bis-trifluoromethyl-benzoyl)-2-(4-chloro-benzyl)-piperidin-4-yl]-amide] |
